From patent publication US8551967B2, “Formulations with anti-tumour action” (Gentium SpA, priority 2003, dated 2013)
Like-named read-outs stand apart in the source and are kept apart here.

How the values were obtained:
mammary carcinoma 13762 = assay: Tumour growth delay in rats carrying mammary carcinoma 13762; details: for Days to reach 500 mm^3 / TGD: chemotherapy alone, ip days 8 & 18; for Days to reach 500 mm^3: tumour implanted day 0; for TGD: versus controls
Experimental: The hepatotoxin monocrotaline and the AA carmustine (BCNU), alone or in association with DF, were tested in vivo in an experimental model which used rats carrying mammary carcinoma 13762.
Table 1. […] The tumour was implanted on day 0 and the chemotherapy was administered on day 8 and day 18.

bovine endothelial cells = assay: Cytotoxicity of alkylating agents with and without DF in bovine endothelial cells in culture; format: cell-based; details: DF 50 μg/ml with alkylating agents
From the text: In the following study, DF was examined in combination with antiblastic cytotoxic agents in a model of mouse EMT-6 mammary carcinoma cells and in bovine endothelial cells, in cell cultures and in an experimental model in which rats carrying tumours subjected to high doses of chemotherapy were used.

[1] = system: Lewis pulmonary carcinoma; assay: Tumour growth and pulmonary metastases in mice carrying Lewis pulmonary carcinoma; format: in vivo; details: DF added to paclitaxel with or without carboplatin
From the text: The mechanism underlying these effects remains to be explained, but it is possible that the anti-adhesive properties of DF are involved, given the role of cell adhesion in the mechanisms implicated in drug resistance (8, 9).

MM-1S human MM cells = format: in vivo; details: for Tumor volume: P<0.05
Experimental: It was also tested whether DF has in vivo activity in a murine model of human multiple myeloma (MM). Sixty male SCID/NOD mice (6-8 weeks old) were irradiated (450 rads) and, 24 hrs later, injected s.c. with 5×10^6 MM-1S human MM cells. Upon formation of palpable tumors, mice were randomly assigned to 6 cohorts (10 mice each) receiving a) vehicle; b) DF (i.v. 450 mg/kg b.i.d); c) melphalan (MEL) 2.5 mg/kg i.p. once weekly; d) cyclophosphamide (CTX) 50 mg/kg i.p., on days 8, 10, 12, 20, 22 and 24; e) and f) combinations of DF (300 mg/kg i.v.) with MEL or CTX, respectively. Mice were monitored q3 days for body weight, potential toxicity, and electronic caliper-based tumor volumes.
The major endpoints for efficacy were a) tumor volume changes and b) overall survival (time-to-sacrifice, performed when tumor diameters>2 cm).

MM cells = assay: In vitro direct cytotoxicity against MM cells; format: cell-based; details: DF alone
[2] = system: mouse EMT-6 mammary carcinoma cells; assay: Cytotoxicity of alkylating agents with and without DF in EMT-6 cells in culture
[3] = monocrotaline or BCNU together with DF
[4] = versus cytotoxic therapy alone, data not presented

Row | Molecule | Days to reach 500 mm^3 (mammary carcinoma 13762) [days] | TGD (mammary carcinoma 13762) [days] | Increase in cytotoxicity of AAs in association with DF (bovine endothelial cells) | Tumour growth delay (TGD), in words (mammary carcinoma 13762; DF alone versus control, p<0.05, repeat study) | Tumour growth delay (TGD), in words (mammary carcinoma 13762; DF associated with CTX and BCNU, p<0.04, greater than each agent alone, repeat study) | Additional toxicity in the animals (mammary carcinoma 13762; [3]) | Tumour growth delay (TGD), in words (mammary carcinoma 13762; [3]) | Toxicity [1] | Number of pulmonary metastases [1, 4] | Tumour growth (TGD) [1, 4] | Tumor volume (MM-1S human MM cells; DF 300 mg/kg i.v. with MEL or CTX versus single-agent chemotherapy) | Tumor volume (MM-1S human MM cells; DF i.v. 450 mg/kg b.i.d versus control mice) | Tolerability (hemorrhagic complications, body weight) (MM-1S human MM cells; DF single agent (i.v. 450 mg/kg b.i.d) or 300 mg/kg i.v. with MEL or CTX, P>0.05) | Overall survival (time-to-sacrifice), Kaplan-Meier (MM-1S human MM cells; DF single agent or with MEL or CTX, versus vehicle or MEL- or CTX-treated groups, P<0.001 log-rank) | Direct in vitro cytotoxic effect (MM cells) | Increment in the killing of tumour cells by 4HC ([2]; DF 50 μg/ml before and during, or during and after 4HC, 4HC 50-250 μmol) [logarithmic units] | Effect of DF on cytotoxicity of melphalan ([2]; DF before and during or during and after melphalan) | Effect of DF on cytotoxicity of carboplatin ([2]; DF with carboplatin, compared with thiotepa result)
1 | O=NN(CCCl)C(=O)NCCCl [BCNU, carmustine] | 18.0 ± 2.5 | 3.4 |  |  |  |  |  |  |  |  |  |  |  |  |  |  |  | 
2 | C[C@H]1C(=O)O[C@@H]2CCN3CC=C(COC(=O)[C@](C)(O)[C@]1(C)O)[C@H]23 [Monocrotaline, monocrotaline] | 15.6 ± 1.0 | 1.0 |  |  |  |  |  |  |  |  |  |  |  |  |  |  |  | 
3 | defibrotide [DF] |  |  | no increase in cytotoxicity | significant tumour growth delay | particularly significant | no additional toxicity | significant tumour growth delay | without showing an obvious increase in toxicity | reduction | reduction in tumour growth | significantly lower tumor volumes than the respective single-agent cytotoxic chemotherapy | significantly lower tumor volumes than in control mice | well tolerated without hemorrhagic complications or body weight loss | statistically significant prolongation of overall survival | have not shown a significant direct in vitro cytotoxic effect | 2 | did not show any significant effect | A similar result
